For the series, the system named is Caco-2 cells. The experiment in a line: Iron bioavailability test in the in vitro digestion/Caco-2 cell culture system (ferritin ELISA, Bradford total protein). It counts as in vitro ADME, Human. The method, then: The assay followed the guidance of Department of Health, Executive Yuan, R.O.C. (TAIWAN) and was conducted to analyze the cytotoxicity and the iron bioavailability of Fe3O4 microspheres in the in vitro digestion/Caco-2 cell culture system. The iron bioavailability from the test article could be evaluated by an in vitro system including enzymatic digestion, iron uptake and ferritin determination via an Enzyme-linked immunosorbent assay (ELISA).
• Cell line: Human colon adenocarcinoma, clone of Caco-2. BCRC 80182. • Culture medium: Minimum Essential Medium (MEM) without any additional iron, iron conc.<8 μg/L. • Culture condition: 37±1° C. with 5% C02 incubator. • EBSS/MES buffer: Earle's balanced salt solution (EBSS) ? 10 mM MES (2-[4-morpholino]-ethanesulfonic acid) buffer, pH 6.0. • MEM enrichment medium: hydrocortisone (4 mg/L) ? 10 mM PIPES (piperazine-N,N′-bis-[2-ethanesulfonic acid]) ? 1% antibiotic-antimycotic solution ? insulin (5 mg/L) ? sodium selenite (5 μg/L) ? triiodothyronine ([…]) and epidermal growth factor (2 μg//L). • Iron removal solution: 1 mM bathophenanthroline disulfonic acid (BPDS) and 5 mM sodium hydrosulfite were dissolved in the rinse solution. • Rinse solution: 140 mM NaCl ? 5 mM KCI ? 10 mM PIPES, pH 7.0. Grouping:
The test article were two sizes of Fe3O4 microspheres with an average diameter of 800 nanometer (nm) and 3000 nm, respectively. Both microspheres were placed in a buffer with a pH value ranges from 5-7. Preferably, the buffer was water or Phosphate Buffered Saline (PBS). In this experiment, the buffer was Phosphate Buffered Saline.
• The digestion of the test article: 0.5 mL of test article was dissolved in 1 mL of 1 N HCl solution, and incubated at 37±1° C. for 16 hours. The final iron concentration was 100 μM. Phosphate buffered saline was used as the negative control and treated in the same condition without the test article. • Iron bioavailability test: • i. […] Measured the absorbance at 595 nm with an ELISA reader. • ii. […] Determined by, the human ferritin enzyme immunoassay test kit. • ii. […]

As to `O=S(=O)([O-])[O-].[Fe+2]` [FeSO4], the “Tested Ferritin” value (Caco-2 cell lysate, 24 hours treatment, 50 μM FeSO4 (positive control)) worked out at 61.1 ± 1.6 ng/mL. Moreover, the “Calibrated Ferritin” value (ferritin calibrated by total protein, Caco-2, 24 hours, 50 μM FeSO4 (positive control)) turned out to be 255.9±15.4 ng/mg protein. Further, the Iron availability (relative to positive control, Caco-2, 24 hours, 50 μM FeSO4) came out at 100%.

Source of the values: US8795739B2, “Iron fortified food product and additive” (Magqu Co. Ltd., priority 2012, dated 2014).
